Experimental data from patent US7632918B2, “Semi-synthetic glycopeptides with antibiotic activity” (Novartis Vaccines and Diagnostics, Inc., priority 2005, dated 2009).
In brackets after ≈: the same amount, converted by molar mass.

Tests used:
Assay in all cases: MIC, broth microdilution in Meuller-Hinton broth (NCCLS)
602 S. haemolyticus = type: cell-based, Staphylococus haemolyticus; conditions: clinical isolate
Description: (§1) Antibacterial activity in vitro was investigated by broth microdilution method in Meuller-Hinton broth as recommended by NCCLS. All strains tested were clinical isolates either sensitive or resistant to natural glycopeptides. Results are reported in the tables as MIC (minimal inhibitory concentration) in μg/ml.
(§2) The glycopeptides were tested against a variety of strains, indicated below, including Staphylococus epidermidis, Staphylococus haemolyticus, glycopeptides-intermediate Staphylococus aureus (GISA), glocopeptide-sensitive Enterococcus faecalis (GSE), and glocopeptide-resistant Enterococcus faecalis (GRE). Results are shown in the table as minimum inhibitory concentration (MIC) in units of μg/ml: […]

568 E. faecium (GSE) = type: cell-based; conditions: glycopeptide-sensitive clinical isolate
Description: as §1, §2

569 E. faecium (GRE) = type: cell-based; conditions: glycopeptide-resistant clinical isolate
Description: as §1, §2

559 E. faecalis (GSE) = type: cell-based, Enterococcus faecalis; conditions: glycopeptide-sensitive clinical isolate
Description: as §1, §2

560 E. faecalis (GRE) = type: cell-based, Enterococcus faecalis; conditions: glycopeptide-resistant clinical isolate
Description: as §1, §2

533 S. epidermidis = type: cell-based, Staphylococus epidermidis; conditions: clinical isolate
Description: as §1, §2

3798 S. aureus (GISA) = type: cell-based, Staphylococus aureus; conditions: glycopeptides-intermediate clinical isolate
Description: as §1, §2

3797 S. aureus (GISA) = type: cell-based, Staphylococus aureus; conditions: glycopeptides-intermediate clinical isolate
Description: as §1, §2

Compound	MIC 602 S. haemolyticus (602 S. haemolyticus)	MIC 568 E. faecium (GSE) (568 E. faecium (GSE))	MIC 569 E. faecium (GRE) (569 E. faecium (GRE))	MIC 559 E. faecalis (GSE) (559 E. faecalis (GSE))	MIC 560 E. faecalis (GRE) (560 E. faecalis (GRE))	MIC 533 S. epidermidis (533 S. epidermidis)	MIC 3798 S. aureus (GISA) (3798 S. aureus (GISA))	MIC 3797 S. aureus (GISA) (3797 S. aureus (GISA))
CNC(CC(C)C)C(=O)NC1C(=O)NC(CC(N)=O)C(=O)NC2C(=O)NC3C(=O)NC(C(=O)NC(C(=O)O)c4cc(O)cc(O)c4-c4cc3ccc4O)C(OC3CC(C)(N)C(O)C(C)O3)c3ccc(cc3)Oc3cc2cc(c3OC2OC(CO)C(O)C(O)C2OC2CC(C)(NC(=O)[C@H](N)Cc3ccccc3)C(O)C(C)O2)Oc2ccc(cc2Cl)C1O (stereo partly drawn) [Compound 229]	1 µg/mL (≈ 0.586 µM)	0.25 µg/mL (≈ 0.147 µM)	>64 µg/mL	0.5 µg/mL (≈ 0.293 µM)	>64 µg/mL	1 µg/mL (≈ 0.586 µM)	>32 µg/mL	>32 µg/mL
CNC(CC(C)C)C(=O)NC1C(=O)NC(CC(N)=O)C(=O)NC2C(=O)NC3C(=O)NC(C(=O)NC(C(=O)O)c4cc(O)cc(O)c4-c4cc3ccc4O)C(O)c3ccc(c(Cl)c3)Oc3cc2cc(c3OC2OC(CO)C(O)C(O)C2OC2CC(C)(NC(=O)CNCc3ccc(-c4ccc(Cl)cc4)cc3)C(O)C(C)O2)Oc2ccc(cc2Cl)C1O (stereo not drawn) [Compound 210]	0.25 µg/mL (≈ 0.146 µM)	0.25 µg/mL (≈ 0.146 µM)	16 µg/mL (≈ 9.37 µM)	0.5 µg/mL (≈ 0.293 µM)	16 µg/mL (≈ 9.37 µM)	0.13 µg/mL (≈ 0.0762 µM)	1 µg/mL (≈ 0.586 µM)	1 µg/mL (≈ 0.586 µM)
CNC(CC(C)C)C(=O)NC1C(=O)NC(CC(N)=O)C(=O)NC2C(=O)NC3C(=O)NC(C(=O)NC(C(=O)O)c4cc(O)cc(O)c4-c4cc3ccc4O)C(OC3CC(C)(N)C(O)C(C)O3)c3ccc(cc3)Oc3cc2cc(c3OC2OC(CO)C(O)C(O)C2OC2CC(C)(NC(=O)CNCc3ccc(-c4ccc(Cl)cc4)cc3)C(O)C(C)O2)Oc2ccc(cc2Cl)C1O (stereo not drawn) [Compound 44]	2 µg/mL (≈ 1.1 µM)	1 µg/mL (≈ 0.551 µM)	8 µg/mL (≈ 4.41 µM)	1 µg/mL (≈ 0.551 µM)	8 µg/mL (≈ 4.41 µM)	0.5 µg/mL (≈ 0.275 µM)	4 µg/mL (≈ 2.2 µM)	4 µg/mL (≈ 2.2 µM)
CNC(CC(C)C)C(=O)NC1C(=O)NC(CC(N)=O)C(=O)NC2C(=O)NC3C(=O)NC(C(=O)NC(C(=O)O)c4cc(O)cc(O)c4-c4cc3ccc4O)C(OC3CC(C)(N)C(O)C(C)O3)c3ccc(cc3)Oc3cc2cc(c3OC2OC(CO)C(O)C(O)C2OC2CC(C)(NC(=O)CNCc3ccc4c(c3)Cc3ccccc3-4)C(O)C(C)O2)Oc2ccc(cc2Cl)C1O (stereo not drawn) [Compound 292]	4 µg/mL (≈ 2.23 µM)	2 µg/mL (≈ 1.12 µM)	32 µg/mL (≈ 17.8 µM)	2 µg/mL (≈ 1.12 µM)	32 µg/mL (≈ 17.8 µM)	4 µg/mL (≈ 2.23 µM)	8 µg/mL (≈ 4.46 µM)	8 µg/mL (≈ 4.46 µM)
CCCCc1ccc(CNCC(=O)NC2(C)CC(OC3C(Oc4c5cc6cc4Oc4ccc(cc4Cl)C(O)C4NC(=O)C(NC(=O)C6NC(=O)C(CC(N)=O)NC(=O)C(NC(=O)C(CC(C)C)NC)C(O)c6ccc(c(Cl)c6)O5)c5ccc(O)c(c5)-c5c(O)cc(O)cc5C(C(=O)O)NC4=O)OC(CO)C(O)C3O)OC(C)C2O)cc1 (stereo not drawn) [Compound 182]	0.5 µg/mL (≈ 0.303 µM)	0.5 µg/mL (≈ 0.303 µM)	32 µg/mL (≈ 19.4 µM)	1 µg/mL (≈ 0.605 µM)	32 µg/mL (≈ 19.4 µM)	0.25 µg/mL (≈ 0.151 µM)	2 µg/mL (≈ 1.21 µM)	2 µg/mL (≈ 1.21 µM)
CNC(CC(C)C)C(=O)NC1C(=O)NC(CC(N)=O)C(=O)NC2C(=O)NC3C(=O)NC(C(=O)NC(C(=O)O)c4cc(O)cc(O)c4-c4cc3ccc4O)C(OC3CC(C)(N)C(O)C(C)O3)c3ccc(cc3)Oc3cc2cc(c3OC2OC(CO)C(O)C(O)C2OC2CC(C)(NC(=O)CNCc3c[nH]c4ccc(OCc5ccccc5)cc34)C(O)C(C)O2)Oc2ccc(cc2Cl)C1O (stereo not drawn) [Compound 224]	2 µg/mL (≈ 1.08 µM)	1 µg/mL (≈ 0.54 µM)	16 µg/mL (≈ 8.65 µM)	2 µg/mL (≈ 1.08 µM)	>64 µg/mL	2 µg/mL (≈ 1.08 µM)	8 µg/mL (≈ 4.32 µM)	8 µg/mL (≈ 4.32 µM)
CNC(CC(C)C)C(=O)NC1C(=O)NC(CC(N)=O)C(=O)NC2C(=O)NC3C(=O)NC(C(=O)NC(C(=O)NC4C5CC6CC(C5)CC4C6)c4cc(O)cc(O)c4-c4cc3ccc4O)C(OC3CC(C)(N)C(O)C(C)O3)c3ccc(cc3)Oc3cc2cc(c3OC2OC(CO)C(O)C(O)C2OC2CC(C)(N)C(O)C(C)O2)Oc2ccc(cc2Cl)C1O (stereo not drawn) [Compound 213, 2-adamantanamino eremomycin]	0.25 µg/mL (≈ 0.148 µM)	0.5 µg/mL (≈ 0.296 µM)	4 µg/mL (≈ 2.37 µM)	0.5 µg/mL (≈ 0.296 µM)	8 µg/mL (≈ 4.73 µM)	0.25 µg/mL (≈ 0.148 µM)	2 µg/mL (≈ 1.18 µM)	1 µg/mL (≈ 0.591 µM)
CNC(CC(C)C)C(=O)NC1C(=O)NC(CC(N)=O)C(=O)NC2C(=O)NC3C(=O)NC(C(=O)NC(C(=O)O)c4cc(O)cc(O)c4-c4cc3ccc4O)C(OC3CC(C)(N)C(O)C(C)O3)c3ccc(cc3)Oc3cc2cc(c3OC2OC(CO)C(O)C(O)C2OC2CC(C)(NC(=O)CNCc3ccc(C(F)(F)F)cc3)C(O)C(C)O2)Oc2ccc(cc2Cl)C1O (stereo not drawn) [Compound 294]	1 µg/mL (≈ 0.564 µM)	0.5 µg/mL (≈ 0.282 µM)	>64 µg/mL	0.5 µg/mL (≈ 0.282 µM)	>64 µg/mL	1 µg/mL (≈ 0.564 µM)	4 µg/mL (≈ 2.26 µM)	4 µg/mL (≈ 2.26 µM)
CNC(CC(C)C)C(=O)NC1C(=O)NC(CC(N)=O)C(=O)NC2C(=O)NC3C(=O)NC(C(=O)NC(C(=O)NC(C)C45CC6CC(CC(C6)C4)C5)c4cc(O)cc(O)c4-c4cc3ccc4O)C(OC3CC(C)(N)C(O)C(C)O3)c3ccc(cc3)Oc3cc2cc(c3OC2OC(CO)C(O)C(O)C2OC2CC(C)(N)C(O)C(C)O2)Oc2ccc(cc2Cl)C1O (stereo not drawn) [Compound 262]	1 µg/mL (≈ 0.582 µM)	0.5 µg/mL (≈ 0.291 µM)	16 µg/mL (≈ 9.31 µM)	1 µg/mL (≈ 0.582 µM)	16 µg/mL (≈ 9.31 µM)	0.5 µg/mL (≈ 0.291 µM)	2 µg/mL (≈ 1.16 µM)	4 µg/mL (≈ 2.33 µM)
CCCCc1ccc(CNCC(=O)NC2(C)CC(OC3C(Oc4c5cc6cc4Oc4ccc(cc4Cl)C(O)C4NC(=O)C(NC(=O)C6NC(=O)C(CC(N)=O)NC(=O)C(NC(=O)C(CC(C)C)NC)C(O)c6ccc(c(Cl)c6)O5)c5ccc(O)c(c5)-c5c(O)cc(O)cc5C(C(=O)NCc5ccc(F)cc5)NC4=O)OC(CO)C(O)C3O)OC(C)C2O)cc1 (stereo not drawn) [Compound 276]	2 µg/mL (≈ 1.14 µM)	2 µg/mL (≈ 1.14 µM)	16 µg/mL (≈ 9.09 µM)	4 µg/mL (≈ 2.27 µM)	16 µg/mL (≈ 9.09 µM)	0.5 µg/mL (≈ 0.284 µM)	2 µg/mL (≈ 1.14 µM)	2 µg/mL (≈ 1.14 µM)
CCCCCCCCOc1ccc(CNCC(=O)NC2(C)CC(OC3C(Oc4c5cc6cc4Oc4ccc(cc4Cl)C(O)C(NC(=O)C(CC(C)C)NC)C(=O)NC(CC(N)=O)C(=O)NC6C(=O)NC4C(=O)NC(C(=O)NC(C(=O)NC6C7CC8CC(C7)CC6C8)c6cc(O)cc(O)c6-c6cc4ccc6O)C(OC4CC(C)(N)C(O)C(C)O4)c4ccc(cc4)O5)OC(CO)C(O)C3O)OC(C)C2O)cc1 (stereo not drawn) [Compound 265]	32 µg/mL (≈ 16.3 µM)					32 µg/mL (≈ 16.3 µM)	>32 µg/mL	>32 µg/mL
CNC(CC(C)C)C(=O)NC1C(=O)NC(CC(N)=O)C(=O)NC2C(=O)NC3C(=O)NC(C(=O)NC(C(=O)O)c4cc(O)cc(O)c4-c4cc3ccc4O)C(OC3CC(C)(N)C(O)C(C)O3)c3ccc(cc3)Oc3cc2cc(c3OC2OC(CO)C(O)C(O)C2OC2CC(C)(NC(=O)CNC(=O)OC34CC5CC(CC(C5)C3)C4)C(O)C(C)O2)Oc2ccc(cc2Cl)C1O (stereo not drawn) [Compound 222]		1 µg/mL (≈ 0.558 µM)	>64 µg/mL	2 µg/mL (≈ 1.12 µM)	>64 µg/mL			
CCCCCCCCOc1ccc(CNCC(=O)NC2(C)CC(OC3C(Oc4c5cc6cc4Oc4ccc(cc4Cl)C(O)C(NC(=O)C(CC(C)C)NC)C(=O)NC(CC(N)=O)C(=O)NC6C(=O)NC4C(=O)NC(C(=O)NC(C(=O)NC(C)C67CC8CC(CC(C8)C6)C7)c6cc(O)cc(O)c6-c6cc4ccc6O)C(OC4CC(C)(N)C(O)C(C)O4)c4ccc(cc4)O5)OC(CO)C(O)C3O)OC(C)C2O)cc1 (stereo not drawn) [Compound 266]	32 µg/mL (≈ 16 µM)					16 µg/mL (≈ 8.02 µM)	>32 µg/mL	>32 µg/mL
CNC(CC(C)C)C(=O)NC1C(=O)NC(CC(N)=O)C(=O)NC2C(=O)NC3C(=O)NC(C(=O)NC(C(=O)O)c4cc(O)cc(O)c4-c4cc3ccc4O)C(OC3CC(C)(N)C(O)C(C)O3)c3ccc(cc3)Oc3cc2cc(c3OC2OC(CO)C(O)C(O)C2OC2CC(C)(NC(=O)CNC(=O)OCC3c4ccccc4-c4ccccc43)C(O)C(C)O2)Oc2ccc(cc2Cl)C1O (stereo not drawn) [Compound 221]		0.5 µg/mL (≈ 0.272 µM)	64 µg/mL (≈ 34.8 µM)	0.5 µg/mL (≈ 0.272 µM)	>64 µg/mL			
